Experimental data as given in PMC6232110, “Two novel, putative mechanisms of action for citalopram-induced platelet inhibition” (Scientific Reports, 2018).

Key:
CalDAG-GEFI = target: T1, CalDAG-GEFI (Homo sapiens, UniProt Q7LDG7); assay: BODIPY-FL-GDP fluorescence nucleotide exchange assay with purified recombinant CalDAG-GEFI and Rap1B; format: biochemical
T1 construct: gene RASGRP2; recombinant 6xHis, C-terminal truncation p.(Ala552_Leu609del); with Rap1B
Text: BODIPY-FL-GDP fluorescence nucleotide exchange assay with purified recombinant CalDAG-GEFI and Rap1B on CalDAG-GEFI | Citalopram inhibited CalDAG-GEFI-mediated BODIPY-FL-GDP exchange onto Rap1B in a concentration-dependent manner

glycoprotein VI (GPVI) = target: T2, glycoprotein VI (GPVI) (Homo sapiens, UniProt Q9HCN6); assay: Schild analysis of CRPXL-induced platelet aggregation; inhibition of anti-GPVI antibody binding by flow cytometry; format: cell-based; conditions: platelets; read-out: Kd
T2 construct: gene GP6; native GPVI on washed human platelets; with FcRγ chain
T2 sequence (Q9HCN6 21-339): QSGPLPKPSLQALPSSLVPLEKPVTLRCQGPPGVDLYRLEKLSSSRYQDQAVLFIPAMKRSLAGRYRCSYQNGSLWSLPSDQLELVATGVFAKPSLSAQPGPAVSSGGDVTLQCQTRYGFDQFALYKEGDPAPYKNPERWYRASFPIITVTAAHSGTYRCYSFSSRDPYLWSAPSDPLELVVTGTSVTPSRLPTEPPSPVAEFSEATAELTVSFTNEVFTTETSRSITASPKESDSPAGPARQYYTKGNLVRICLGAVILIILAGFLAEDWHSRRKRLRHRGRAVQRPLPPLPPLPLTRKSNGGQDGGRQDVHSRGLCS
T2 sequence (P30273 19-86 partner): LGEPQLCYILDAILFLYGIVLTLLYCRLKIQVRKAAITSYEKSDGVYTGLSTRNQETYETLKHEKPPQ

T1 sequence (P61224 1-167): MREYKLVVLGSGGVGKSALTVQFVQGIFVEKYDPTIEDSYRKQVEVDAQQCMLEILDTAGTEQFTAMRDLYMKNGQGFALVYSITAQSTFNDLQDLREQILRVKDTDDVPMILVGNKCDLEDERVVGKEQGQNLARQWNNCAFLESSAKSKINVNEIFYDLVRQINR
T1 sequence (Q7LDG7 1-551): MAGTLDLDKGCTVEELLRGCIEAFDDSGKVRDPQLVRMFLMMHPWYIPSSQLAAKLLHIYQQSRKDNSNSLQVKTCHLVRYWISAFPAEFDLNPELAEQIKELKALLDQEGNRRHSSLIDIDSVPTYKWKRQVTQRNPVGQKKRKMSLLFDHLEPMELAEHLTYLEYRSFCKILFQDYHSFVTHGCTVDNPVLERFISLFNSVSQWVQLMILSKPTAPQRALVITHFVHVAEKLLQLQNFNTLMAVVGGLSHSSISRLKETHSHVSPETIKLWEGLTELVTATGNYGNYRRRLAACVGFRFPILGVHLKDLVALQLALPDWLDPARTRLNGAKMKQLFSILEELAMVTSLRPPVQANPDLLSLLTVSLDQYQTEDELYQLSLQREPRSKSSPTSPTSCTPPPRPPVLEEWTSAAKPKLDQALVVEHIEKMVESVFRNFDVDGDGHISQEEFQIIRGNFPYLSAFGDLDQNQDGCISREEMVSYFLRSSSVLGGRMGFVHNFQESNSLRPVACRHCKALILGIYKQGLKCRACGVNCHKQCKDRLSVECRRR

CN(C)CCCC1(c2ccc(F)cc2)OCc2cc(C#N)ccc21 (racemic) [citalopram]
IC50 (CalDAG-GEFI): 214 µM
Kb (glycoprotein VI (GPVI)): ~16 µM
